The target of assay [1] is insulin receptor A (Homo sapiens, UniProt P06213). Description: Insulin receptor affinity. The class given is binding. Conditions: relative to affinity of human insulin for insulin receptor A (100%).
The test system of assay [2] is Sprague-Dawley rats. Nature of the assay: PD studies: blood glucose after subcutaneous dosing. The class given is in vivo. The following applies: sc. As for the experimental part: The pharmacodynamic effect of the Insulin Fc conjugates of the examples were investigated in normal male Sprague-Dawley rats weighing approx. 350 g at study start.
Animals had free access to food and water during the experiment period. They were dosed subcutaneously in the neck region with a dose of 30 nmol/kg (unless otherwise stated in the figures below). Blood samples for blood glucose and plasma insulin analysis were collected from the tongue veins up to 10 days post dosing. Blood glucose was measured using Biosen S Line (EKF).

The test system of assay [3] is isolated rat adipocytes. Nature of the assay: Insulin-stimulated lipogenesis. The class given is cell-based. Conditions: 1% HSA; relative to the activity of human insulin (100%). As for the experimental part:
Insulin-stimulated lipogenesis was measured in isolated rat adipocytes in presence of 1% HSA as described in Moody A J, Stan M A, Stan M, Gliemann J. A Simple Free Fat Cell Bioassay for Insulin. Hormone And Metabolic Research. 1974; 6(1):12-6, see results in Table 6.

[4] abbreviates: dose 30 nmol/kg, time 0.041667 days.
Setting [5] is: dose 30 nmol/kg, time 0.125 days.
The mark [6] stands for this setting: dose 30 nmol/kg, time 0.291667 days.
Setting [7] is: dose 30 nmol/kg, time 0.208333 days.

Sequence of insulin receptor A (P06213 28-1370 isoform P06213-2 limits assumed): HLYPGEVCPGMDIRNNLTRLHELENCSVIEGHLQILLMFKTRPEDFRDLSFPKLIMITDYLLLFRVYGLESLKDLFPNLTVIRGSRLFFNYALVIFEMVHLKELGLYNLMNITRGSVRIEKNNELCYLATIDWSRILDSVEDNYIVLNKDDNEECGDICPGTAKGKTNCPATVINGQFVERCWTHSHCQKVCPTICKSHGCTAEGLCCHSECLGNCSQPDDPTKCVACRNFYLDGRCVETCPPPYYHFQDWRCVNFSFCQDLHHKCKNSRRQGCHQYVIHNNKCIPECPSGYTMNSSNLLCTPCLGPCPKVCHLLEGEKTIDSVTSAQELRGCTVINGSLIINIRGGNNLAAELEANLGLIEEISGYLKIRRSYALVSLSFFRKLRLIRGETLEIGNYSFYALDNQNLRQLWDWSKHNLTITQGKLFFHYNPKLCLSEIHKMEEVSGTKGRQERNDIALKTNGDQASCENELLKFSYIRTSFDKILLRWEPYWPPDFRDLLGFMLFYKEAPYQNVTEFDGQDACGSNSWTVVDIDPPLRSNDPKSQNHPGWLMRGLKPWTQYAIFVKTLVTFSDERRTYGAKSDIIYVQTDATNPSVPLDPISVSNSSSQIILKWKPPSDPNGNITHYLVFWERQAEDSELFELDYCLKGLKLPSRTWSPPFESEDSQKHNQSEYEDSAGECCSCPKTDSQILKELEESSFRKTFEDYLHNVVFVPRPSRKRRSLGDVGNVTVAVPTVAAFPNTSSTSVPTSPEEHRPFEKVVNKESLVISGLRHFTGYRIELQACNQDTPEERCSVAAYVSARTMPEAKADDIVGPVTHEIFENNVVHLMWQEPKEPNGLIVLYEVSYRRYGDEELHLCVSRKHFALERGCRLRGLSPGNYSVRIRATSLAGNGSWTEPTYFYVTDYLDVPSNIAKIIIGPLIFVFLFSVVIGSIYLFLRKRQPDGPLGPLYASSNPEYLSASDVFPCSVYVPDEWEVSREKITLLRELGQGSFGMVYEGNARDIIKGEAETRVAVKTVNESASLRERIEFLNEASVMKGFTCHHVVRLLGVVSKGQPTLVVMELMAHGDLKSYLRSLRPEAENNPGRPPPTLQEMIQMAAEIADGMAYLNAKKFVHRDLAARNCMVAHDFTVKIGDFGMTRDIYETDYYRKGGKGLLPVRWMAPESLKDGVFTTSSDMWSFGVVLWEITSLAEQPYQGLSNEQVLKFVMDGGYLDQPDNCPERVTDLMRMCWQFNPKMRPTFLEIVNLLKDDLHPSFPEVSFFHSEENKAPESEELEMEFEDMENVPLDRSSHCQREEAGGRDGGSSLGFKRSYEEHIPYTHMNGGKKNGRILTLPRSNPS
Sequence of insulin receptor A (P06213 763-1382 partner limits assumed): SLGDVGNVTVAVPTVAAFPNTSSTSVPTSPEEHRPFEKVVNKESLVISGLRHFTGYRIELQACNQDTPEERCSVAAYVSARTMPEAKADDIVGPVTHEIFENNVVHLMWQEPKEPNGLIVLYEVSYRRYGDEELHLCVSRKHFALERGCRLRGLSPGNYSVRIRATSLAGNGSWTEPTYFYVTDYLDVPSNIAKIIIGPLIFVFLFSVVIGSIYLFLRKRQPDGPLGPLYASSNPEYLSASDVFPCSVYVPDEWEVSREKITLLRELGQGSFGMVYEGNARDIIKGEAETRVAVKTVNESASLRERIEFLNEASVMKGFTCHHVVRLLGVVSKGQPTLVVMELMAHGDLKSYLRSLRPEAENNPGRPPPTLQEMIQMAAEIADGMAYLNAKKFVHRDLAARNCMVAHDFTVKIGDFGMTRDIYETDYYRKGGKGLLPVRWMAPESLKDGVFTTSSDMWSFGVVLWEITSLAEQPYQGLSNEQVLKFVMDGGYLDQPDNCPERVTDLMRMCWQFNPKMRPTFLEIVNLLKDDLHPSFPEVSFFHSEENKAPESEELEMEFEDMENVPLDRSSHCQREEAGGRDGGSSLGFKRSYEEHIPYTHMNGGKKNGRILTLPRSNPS

As for “A14E, A21G, A22(GQAPGQAPGQEP)6-GQAP, A98K^, A99P, B3Q, B25H, B29R, desB30 human insulin/(227A, 234A, 235K, 297E, 315Q, 384Q, des447 hIgG4-Fc(228-447))4-[bis[2-[(2-acetyl)amino]ethyl]carbamoylamino]butanoyl Conjugate [Example 5.24]”, the “Insulin receptor affinity [IC50 relative to HI (%)] Mean Value” in assay [1] worked out at 4.60%. In addition, the Average blood glucose is 5.604 mM in assay [2] (dose 30 nmol/kg, time 0 days); 5.98 mM in assay [2] (setting [4]); 5.172 mM in assay [2] (setting [5]); 4.164 mM in assay [2] (setting [6]); 2.924 mM in assay [2] (dose 30 nmol/kg, time 1 day); 3.128 mM in assay [2] (dose 30 nmol/kg, time 2 days). In addition, the Average blood glucose in assay [2] (dose 30 nmol/kg, time 3 days) is recorded as 3.352 mM; in assay [2] (dose 30 nmol/kg, time 4 days) it was 6.272 mM; in assay [2] (dose 30 nmol/kg, time 5 days) it was 5.788 mM; in assay [2] (dose 30 nmol/kg, time 6 days), 5.824 mM; in assay [2] (dose 30 nmol/kg, time 7 days) it was 6.092 mM; in assay [2] (dose 30 nmol/kg, time 8 days), 6.016 mM. The Average blood glucose in assay [2] (dose 30 nmol/kg, time 9 days) worked out at 5.872 mM; in assay [2] (dose 30 nmol/kg, time 10 days), 6.072 mM. In addition, in assay [3], the “Lipogenesis in rat adipocytes [Potency (%)] Mean Value” is 3.83%.
In the case of “A14E, A21G, A22(GQAPGQAPGQEP)6-GQAP, A98K^, A99P, B3Q, B25H, B29R, desB30 human insulin/(227A, 234A, 235K, 297E, 315Q, 3840, des447 hIgG4-Fc(228-447))4-[bis[2-[(2-acetyl)amino]ethyl]amino]-4-oxo-butanoyl Conjugate [Example 5.13]”, the “Insulin receptor affinity [IC50 relative to HI (%)] Mean Value” in assay [1] was 5.55%. Further, the Average blood glucose in assay [2] (dose 30 nmol/kg, time 0 days) is 6.384 mM; in assay [2] (setting [4]), 5.976 mM; in assay [2] (setting [5]), 4.892 mM; in assay [2] (setting [6]) it was 4.184 mM; in assay [2] (dose 30 nmol/kg, time 1 day), 2.428 mM; in assay [2] (dose 30 nmol/kg, time 2 days) it was 2.452 mM. Further, the Average blood glucose in assay [2] (dose 30 nmol/kg, time 3 days) is given as 3.308 mM; in assay [2] (dose 30 nmol/kg, time 4 days), 5.676 mM; in assay [2] (dose 30 nmol/kg, time 6 days), 5.908 mM; in assay [2] (dose 30 nmol/kg, time 7 days), 5.812 mM; in assay [2] (dose 30 nmol/kg, time 8 days), 5.492 mM. Also, the “Lipogenesis in rat adipocytes [Potency (%)] Mean Value” in assay [3] worked out at 3.07%.
Turning to “A14E, A21G, A22(GQAPGQEP)6, A70K^, A71P, B25H, B29R, desB30 human insulin/(227A, 234A, 235K hIgG4-Fc(228-447))4-[bis[2-[(2-acetyl)amino]ethyl]amino]-4-oxo-butanoyl Conjugate [Example 5.9]”, the “Insulin receptor affinity [IC50 relative to HI (%)] Mean Value” in assay [1] turned out to be 2.96%. Moreover, the Average blood glucose was found to be 5.812 mM in assay [2] (dose 30 nmol/kg, time 0 days); 5.448 mM in assay [2] (setting [4]); 5.438 mM in assay [2] (setting [5]); 4.902 mM in assay [2] (setting [7]); 4.426 mM in assay [2] (setting [6]); 3.044 mM in assay [2] (dose 30 nmol/kg, time 1 day). The Average blood glucose in assay [2] (dose 30 nmol/kg, time 2 days) was 2.614 mM; in assay [2] (dose 30 nmol/kg, time 3 days), 2.594 mM; in assay [2] (dose 30 nmol/kg, time 4 days), 3.734 mM; in assay [2] (dose 30 nmol/kg, time 5 days) it was 5.932 mM; in assay [2] (dose 30 nmol/kg, time 6 days) it was 6.244 mM; in assay [2] (dose 30 nmol/kg, time 7 days), 6.312 mM. In assay [2] (dose 30 nmol/kg, time 8 days), the Average blood glucose stood at 6.186 mM. Besides, the “Lipogenesis in rat adipocytes [Potency (%)] Mean Value” in assay [3] is reported as 3.02%.
For “A14E, A21G, A22(GQEP)6, A46K^, A47P, B25H, B29R, desB30 human insulin/(227A, 234A, 235K hIgG4-Fc(228-447))4-[bis[2-[(2-acetyl)amino]ethyl]amino]-4-oxo-butanoyl Conjugate [Example 5.7]”, the “Insulin receptor affinity [IC50 relative to HI (%)] Mean Value” in assay [1] amounted to 2.43%. Further, the Average blood glucose in assay [2] (dose 30 nmol/kg, time 0 days) was 5.918 mM; in assay [2] (setting [4]), 5.682 mM; in assay [2] (setting [5]), 4.502 mM; in assay [2] (setting [7]), 3.974 mM; in assay [2] (setting [6]) it was 3.428 mM; in assay [2] (dose 30 nmol/kg, time 1 day) it was 2.758 mM. Further, the Average blood glucose was 2.15 mM in assay [2] (dose 30 nmol/kg, time 2 days); 2.3 mM in assay [2] (dose 30 nmol/kg, time 3 days); 2.81 mM in assay [2] (dose 30 nmol/kg, time 4 days); 4.404 mM in assay [2] (dose 30 nmol/kg, time 5 days); 6.702 mM in assay [2] (dose 30 nmol/kg, time 6 days); 6.518 mM in assay [2] (dose 30 nmol/kg, time 7 days). Moreover, the Average blood glucose in assay [2] (dose 30 nmol/kg, time 8 days) was 6.33 mM. In addition, the “Lipogenesis in rat adipocytes [Potency (%)] Mean Value” in assay [3] is reported as 1.88%.
As to “A14E, A21G, A22(GQEP)12, A70K^, A71P, B25H, B29R, desB30 human insulin/(227A, 234A, 235K hIgG4-Fc(228-447))4-[bis[2-[(2-acetyl)amino]ethyl]amino]-4-oxo-butanoyl Conjugate [Example 5.8]”, the “Insulin receptor affinity [IC50 relative to HI (%)] Mean Value” in assay [1] was determined as 10.58%. The Average blood glucose came out at 5.538 mM in assay [2] (dose 30 nmol/kg, time 0 days); 5.44 mM in assay [2] (setting [4]); 4.488 mM in assay [2] (setting [5]); 3.55 mM in assay [2] (setting [7]); 3.238 mM in assay [2] (setting [6]); 2.978 mM in assay [2] (dose 30 nmol/kg, time 1 day). The Average blood glucose in assay [2] (dose 30 nmol/kg, time 2 days) came out at 1.844 mM; in assay [2] (dose 30 nmol/kg, time 3 days), 2.545 mM; in assay [2] (dose 30 nmol/kg, time 4 days), 3.325 mM; in assay [2] (dose 30 nmol/kg, time 5 days) it was 5.39 mM; in assay [2] (dose 30 nmol/kg, time 6 days), 6.8425 mM; in assay [2] (dose 30 nmol/kg, time 7 days), 6.4875 mM. The substance also returned an Average blood glucose in assay [2] (dose 30 nmol/kg, time 8 days) of 6.1875 mM. Besides, the “Lipogenesis in rat adipocytes [Potency (%)] Mean Value” in assay [3] was determined as 5.31%.
Turning to “A14E, A21G, A22(GQEP)19, A98K^, A99P, B3Q, B25H, B29R, desB30 human insulin/(227A, 234A, 235K, 297E, 315Q, 384Q, des447 hIgG4-Fc(228-447))4-[bis[2-[(2-acetyl)amino]ethyl]amino]-4-oxo-butanoyl Conjugate [Example 5.2]”, the “Insulin receptor affinity [IC50 relative to HI (%)] Mean Value” in assay [1] is 6.10%. Moreover, the Average blood glucose in assay [2] (dose 30 nmol/kg, time 0 days) worked out at 6.608 mM; in assay [2] (setting [4]), 6.196 mM; in assay [2] (setting [5]), 5.328 mM; in assay [2] (setting [6]) it was 4.48 mM; in assay [2] (dose 30 nmol/kg, time 1 day), 2.7 mM; in assay [2] (dose 30 nmol/kg, time 2 days), 2.66 mM. Moreover, the Average blood glucose in assay [2] (dose 30 nmol/kg, time 3 days) came to 3.08 mM; in assay [2] (dose 30 nmol/kg, time 4 days), 5.156 mM; in assay [2] (dose 30 nmol/kg, time 6 days), 6.232 mM; in assay [2] (dose 30 nmol/kg, time 7 days), 6.092 mM; in assay [2] (dose 30 nmol/kg, time 8 days), 5.972 mM. Further, the “Lipogenesis in rat adipocytes [Potency (%)] Mean Value” in assay [3] is listed as 3.57%.
On to “A14E, A21Q, A22(G)18, A40K^, B25H, B29R, desB30 human insulin/(227A, 234A, 235K hIgG4-Fc(228-447))4-[bis[2-[(2-acetyl)amino]ethyl]amino]-4-oxo-butanoyl Conjugate [Example 5.21]”, for which the “Insulin receptor affinity [IC50 relative to HI (%)] Mean Value” in assay [1] is given as 2.10%. Moreover, the Average blood glucose worked out at 5.254 mM in assay [2] (dose 300 nmol/kg, time 0 days); 5.972 mM in assay [2] (dose 300 nmol/kg, time 0.006944 days); 4.224 mM in assay [2] (dose 300 nmol/kg, time 0.041667 days); 3.238 mM in assay [2] (dose 300 nmol/kg, time 0.125 days); 2.842 mM in assay [2] (dose 300 nmol/kg, time 0.208333 days); 3.212 mM in assay [2] (dose 300 nmol/kg, time 0.291667 days). In addition, the Average blood glucose in assay [2] (dose 300 nmol/kg, time 0.3336 days) is listed as 3.494 mM; in assay [2] (dose 300 nmol/kg, time 1 day) it was 2.58 mM; in assay [2] (dose 300 nmol/kg, time 2 days), 2.118 mM; in assay [2] (dose 300 nmol/kg, time 3 days), 2.074 mM; in assay [2] (dose 300 nmol/kg, time 4 days) it was 2.37 mM; in assay [2] (dose 300 nmol/kg, time 5 days) it was 2.478 mM. Further, the Average blood glucose amounted to 4.534 mM in assay [2] (dose 300 nmol/kg, time 6 days); 5.588 mM in assay [2] (dose 300 nmol/kg, time 7 days); 6.552 mM in assay [2] (dose 300 nmol/kg, time 8 days); 5.644 mM in assay [2] (dose 300 nmol/kg, time 9 days); 5.788 mM in assay [2] (dose 300 nmol/kg, time 10 days). Moreover, the “Lipogenesis in rat adipocytes [Potency (%)] Mean Value” in assay [3] is reported as 0.95%.
